Laboratory results: patent US20220259213A1, “PYRROLOPYRAZOLE DERIVATIVES, PREPARATION METHOD THEREOF AND APPLICATION THEREOF IN MEDICINE” (SHANGHAI MEDICILON INC., priority 2019, published 2022)

target: T1, H+/K+ATPase (Oryctolagus cuniculus, UniProt P27112); experiment: determination of compounds' inhibition of H+/K+ATPase enzyme activity (malachite green); assay type: biochemical; settings: enzyme extracted from rabbit stomach mucosa; 500 μM ATP; pH 6.5; 37° C.; OD 620 nm; read-out: IC50(μM) inhibition rate (IC50) of H+/K+ATPase enzyme activity
T1 construct: The stomach tissue of the rabbit was separated; from tissue; host or cells: rabbit stomach (fundus) mucosa; membrane pellet obtained by differential and Ficoll centrifugation
Procedure: Test example: determination of compounds' inhibition of H+/K+ATPase enzyme activity
The following experiment is used to determine the inhibitory effect of the compound of the present invention on the H+/K+ATPase enzyme activity.
Enzyme working solution: titrating the enzyme, diluting the enzyme with buffer solution 1, and taking 5 μl of the diluted solution into 50 μl reaction system.
ATP solution: 100 mM ATP was diluted to 5 mM with no K+buffer, and 5 μl of the diluted solution was added to the 50 μl reaction system, that is, the final concentration of ATP was 500 μM.
MLG color development liquid: 0.12% MLG, 7.5% ammonium molybdate, 11% Tween-20 was mixed as 100:25:2, and adding 15 μl of the mixture into each well during detection.
Buffer 1: 5 mM Tris-HCl pH 6.5, 5 mM magnesium chloride (magnesium chloride), 10 μM valinomycin (valinomycin).
Buffer 2: 50 mM Tris-HCl pH 6.5, 5mM magnesium chloride (magnesium chloride), 10 μM valinomycin (valinomycin), 20 mM KCl.
3.1. H^+/K^+ ATPase enzyme extraction
(1) The stomach tissue of the rabbit was separated, and the blood was washed with tap water, food residue.
(5) After homogenization, if there were larger tissue particles, they could be removed by centrifugation (600 g, 10 min), and then the supernatant was transfered to a clean centrifuge tube. After centrifugation at 20000 g for 30 minutes, then the supernatant was transferred to a clean centrifuge tube at 100000 g for 90 minutes, and the precipitate was collected.
(7) Resuspending the precipitate with homogenization buffer, blowing uniformly, and the protein concentration was measured by Bradford. Freezing in tubes at −80° C. for later use.
3.2. H+/K+ATPase activity experiment
(1) Adding 35 μl of reaction buffer to each experimental well, and then adding 35 μl of buffer 1.
(2) Adding 5 μl buffer 1 containing 10% DMSO to the whole enzyme and buffer well.
(3) Adding 5 μl of 10× compound working solution to the compound well and mixing well.
(4) Adding 5 μl of buffer 1 to the buffer well.
(5) Adding 5 μl of 10× enzyme working solution to the remaining wells, mixing and incubating at 37° C. for 30minutes.
(6) Adding 5 μl of 10×ATP working solution to all experimental wells, mixing and incubating at 37° C. for 20 min.
(7) Adding 15 μl MLG chromogenic solution to all experimental wells, and uniformly mixing and incubating at room temperature for 5-30 min.
(8) The reading number of 620 nm was detected by an M5 instrument.
The inhibition rate is calculated with the following formula:
Inhibition rate (IC50)=[OD (sample well)−OD (full enzyme well containing potassium chloride)]/[(OD (full enzyme well containing potassium chloride)−(OD (full enzyme well without potassium chloride)]×100%

T1 sequence (P27112 whole entry): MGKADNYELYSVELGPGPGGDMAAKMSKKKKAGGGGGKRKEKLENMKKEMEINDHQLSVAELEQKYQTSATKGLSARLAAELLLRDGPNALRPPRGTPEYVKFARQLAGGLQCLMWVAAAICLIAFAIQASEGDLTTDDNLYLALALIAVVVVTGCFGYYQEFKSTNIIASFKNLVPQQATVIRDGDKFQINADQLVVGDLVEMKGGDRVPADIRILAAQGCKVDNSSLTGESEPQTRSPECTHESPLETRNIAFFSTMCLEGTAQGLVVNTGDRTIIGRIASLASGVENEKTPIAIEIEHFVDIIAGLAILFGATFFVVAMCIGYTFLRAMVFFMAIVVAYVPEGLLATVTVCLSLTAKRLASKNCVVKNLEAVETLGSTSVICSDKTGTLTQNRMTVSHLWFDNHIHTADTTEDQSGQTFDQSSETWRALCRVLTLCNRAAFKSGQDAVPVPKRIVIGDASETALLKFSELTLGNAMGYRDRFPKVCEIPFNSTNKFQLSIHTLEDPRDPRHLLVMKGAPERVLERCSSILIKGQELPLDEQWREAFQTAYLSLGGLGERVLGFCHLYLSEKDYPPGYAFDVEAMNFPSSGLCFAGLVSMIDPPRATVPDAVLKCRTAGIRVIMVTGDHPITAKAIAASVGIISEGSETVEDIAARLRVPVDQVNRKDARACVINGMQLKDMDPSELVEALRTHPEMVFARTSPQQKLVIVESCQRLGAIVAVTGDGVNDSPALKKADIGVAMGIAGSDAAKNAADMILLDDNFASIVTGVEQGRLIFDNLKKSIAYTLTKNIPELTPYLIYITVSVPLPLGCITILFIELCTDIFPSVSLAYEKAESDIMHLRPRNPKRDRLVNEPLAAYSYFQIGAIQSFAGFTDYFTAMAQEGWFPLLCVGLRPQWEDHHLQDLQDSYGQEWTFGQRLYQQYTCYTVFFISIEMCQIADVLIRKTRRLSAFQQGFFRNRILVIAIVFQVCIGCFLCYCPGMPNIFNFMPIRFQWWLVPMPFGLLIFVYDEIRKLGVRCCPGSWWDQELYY
T1 sequence (P18597 whole entry partner): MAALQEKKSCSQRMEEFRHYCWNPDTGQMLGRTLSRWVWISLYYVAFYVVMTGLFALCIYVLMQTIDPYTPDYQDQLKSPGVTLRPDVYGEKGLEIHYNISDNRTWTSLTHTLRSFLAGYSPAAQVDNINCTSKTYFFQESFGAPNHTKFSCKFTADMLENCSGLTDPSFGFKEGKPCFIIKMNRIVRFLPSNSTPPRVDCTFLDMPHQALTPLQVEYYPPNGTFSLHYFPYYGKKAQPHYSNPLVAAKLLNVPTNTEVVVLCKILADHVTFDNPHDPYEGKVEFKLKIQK

IC50 [µM] | Compound
0.674 | CN1Cc2nn(Cc3cccnc3)c(-c3ccccc3F)c2C1 [Example 4, (2-fluorophenyl)-5-methyl-2-(pyridin-3-ylmethyl)-2,4,5,6-tetrahydropyrrole[3,4-c]pyrazole]
1.38 | CN1Cc2nn(Cc3cccnc3)c(-c3ccc4occc4c3)c2C1 [Example 2, 3-(benzofuran-5-yl)-5-methyl-2-(pyridin-3-ylmethyl)-2,4,5,6-tetrahydropyrrole[3,4-c]pyrazole]
24 | CN1Cc2nn(Cc3cccnc3)c(-c3ccc4[nH]cnc4c3)c2C1 [Example 3, (5-methyl-2-(pyridin-3-ylmethyl)-2,4,5,6-tetrahydropyrrole[3,4-c]pyrazol-3-yl)-1H-benzo[d]imidazole]
3.55 | CN1Cc2nn(Cc3cccnc3)c(-c3ccc4c(c3)CCO4)c2C1 [Example 1, 3-(2,3-dihydrobenzofuran-5-methyl)-5-methyl-2-(pyridin-3-ylmethyl)-2,4,5,6-tetrahydropyrrole[3,4-c]pyrazole]
0.365 | COc1ccc(Cn2nc3c(c2-c2ccccc2F)CN(C)C3)cn1 [Example 5, 3-(2-fluorobenzeneyl)-2-((6-methoxypyridin-3-yl)methyl)-5-methyl-2,4,5,6-tetrahydropyrrolo[3,4-c]pyrazole]
